# Patent US20100249175A1, “Dicationic compounds which selectively recognize G-quadruplex DNA” (priority 2005, published 2010)
# How the values were obtained:
# [1] = system: STIB 900 strain of Trypanosoma brucei rhodesiense (T. b. r.); assay: In vivo T. b. r. STIB 900 mouse model; settings: 20 mg/kg ip
# Protocol: Groups of four mice were infected intraperitoneally with 2×10^5 bloodstream forms of T. b. r. STIB 900 which originates from a patient in Tanzania. On days 3, 4, 5, and 6 post-infection the experimental groups were treated with the drugs either by the intraperitoneal or for prodrugs by the oral route. Usually the highest tolerated dose was used which was determined in a pretoxicological experiment. Parasitemia of the mice was checked daily up to day 14 post-infection and thereafter 2 times per week up to day 60. One group of mice was not treated and acted as control. For relapsing mice, the day of death was recorded and the survival time determined.
# [2] = system: Trypanosoma brucei rhodesiense (T. b. r.); assay: In vitro antiprotozoal activity against T. b. r.; type: cell-based
# Protocol: (§1) In vitro antiprotozoal activities were measured following established protocols. […] E., et al., Bioorg.
# human telomeric DNA = assay: Thermal melting (ΔTm) of human telomeric DNA; type: binding; settings: HEPES buffer containing 50 mM KCl monitored at 295 nm (data not shown)
# [3] = system: Plasmodium falciparum (P. f.); assay: In vitro antiprotozoal activity against P. f.; type: cell-based; settings: in vitro, read-out: P.f. (IC50)
# Protocol: as §1
# [4] = system: human telomeric sequence d[AG3(T2AG3)3] (SEQ ID NO: 1); assay: Surface plasmon resonance, immobilized human telomeric DNA; type: binding
# Protocol: (§2) Surface plasmon resonance (SPR) measurements were performed with a four-channel Biacore® 3000 optical biosensor system (Biacore International AB, Uppsala, Sweden). 5′-biotin labeled DNA was immobilized onto streptavidin-coated Biacore® SA sensor chips as previously described. See Lacy, E. R., et al., J. Amer. Chem. Soc., 124, 2153-2163 (2002); Mazur, S., et al., J. Mol. Biol., 300, 321-337 (2000); Nguyen, B., et al., Biopolymers, 63, 281-297 (2002); Wang, L., et at, Proc. Natl. Acad. Sci. USA, 97, 12-16 (2000); and Wang, L., et al., Biochemistry, 40, 2511-2521 (2001). Two flow cells were used to immobilize the
# DNA oligomer samples, while a third cell was left blank as a control. The SPR studies were performed at 25° C. in a filtered, degassed, 10 mM HEPES buffer (pH 7.4) containing 200 mM KCl, 3 mM EDTA and 0.005% surfactant P20 (Biacore International AB). Compound solutions were prepared by serial dilutions from stock solution and injected from 7-mm plastic vials with pierceable plastic crimp caps.
# Solutions of known concentration of 8 ranging from 2 nM to 10 μM were injected through the flow cells until a constant steady-state response was obtained. […] The instrument response (RU) in the steady-state region was determined by linear averaging over a 50 second time span. The predicted maximum response per bound compound in the steady-state region (RUmax) was determined from the DNA molecular weight, the amount of DNA on the flow cell, the compound molecular weight, and the refractive index gradient ratio of the compound and DNA, as previously described. […] To obtain the binding constants, the data were fitted to a two-site equilibrium model using KaleidaGraph (Synergy Software, Reading, Pa., United States of America) for nonlinear least square optimization of the binding parameters, where RUmax is the maximum response per bound compound and K1 and K2 are the macroscopic binding constants for a two-site binding model: […]
# (§3) Surface plasmon resonance (SPR) was used to quantitatively evaluate the interaction between 8 and human telomeric DNA. […]
# [5] = target: duplex hairpin d[[…]] (SEQ ID NO: 8); assay: Surface plasmon resonance, immobilized duplex hairpin DNA; type: binding; settings: SPR, 25° C., HEPES buffer containing 200 mM KCl
# Protocol: as §2
# DNA oligomer samples, while a third cell was left blank as a control. […]
# Solutions of known concentration of 8 ranging from 2 nM to 10 μM were injected through the flow cells until a constant steady-state response was obtained. […] The instrument response (RU) in the steady-state region was determined by linear averaging over a 50 second time span. The predicted maximum response per bound compound in the steady-state region (RUmax) was determined from the DNA molecular weight, the amount of DNA on the flow cell, the compound molecular weight, and the refractive index gradient ratio of the compound and DNA, as previously described. […]
# as §3
# [6] = SPR, 25° C., HEPES buffer containing 200 mM KCl
smiles,measurement,setting,value
"N=C(N)c1ccc(-c2ccc(-c3ccc(C(=N)N)o3)o2)cc1 [Compound 8, 5′-(4-Amidinophenyl)-2,2′-bifuran-5-carboxamidine]",In Vivo T.b.r. cures,"[1]; mice cured / mice infected, days 3-6 post-infection",2/4
same,In Vivo T.b.r. survival time,[1]; observation up to day 60,> 45.5 days
same,IC50,[2],12 nM
same,ΔTm,human telomeric DNA,approximately 10 °C
same,IC50,[3],41.5 nM
same,selectivity for the human telomeric quadruplex over the duplex DNA,[4]; SPR binding constants,approximately 4 fold
same,"K1, macroscopic binding constant, two-site model",[4]; [6],470000 M⁻¹
same,"K2, macroscopic binding constant, two-site model",[4]; [6],45000 M⁻¹
same,"K, binding constant for the single site",[5],130000 M⁻¹
